# Patent US6699869B1, “β-sheet mimetics and use thereof as inhibitors of biologically active peptides or proteins” (Myriad Genetics Inc., priority 1995, dated 2004)
# How the values were obtained:
# bovine thrombin = target: T1, bovine thrombin (Bos taurus, UniProt P00735); test: thrombin assay, hydrolysis of structure (11b) as proteolytic substrate; type: biochemical; conditions: for kcat/KM (thrombin): bovine thrombin, 37° C.
# T1 construct: bovine thrombin (from Sigma); purchased Sigma
# Experimental: (§1) Both the thrombin and Factor VII assays of this experiment were carried out at 37° C. using a Hitachi UV/Vis spectrophotometer (model U-3000). Structure (11b) was dissolved in deionized water. The concentration was determined from the absorbance at 342 nm. […] Initial velocities were calculated from the initial linear portion of the reaction progress curve. Kinetic parameters were determined by unweighted nonlinear least-squares fitting of the simple Michaelis-Menten equation to the experimental data using GraFit (Version 3.0, Erithacus Software Limited).
# For the thrombin assay, experiments were performed in pH 8.4 Tris buffer (Tris, 0.05M; NaCl, 0.15M). 6.4 NIH units of bovine thrombin (from Sigma) were dissolved into 10 ml of the assay buffer to yield 10 nM thrombin solution. […] The first two minutes of the reactions were recorded for initial velocity determination.
# [1] = target: T2, human Factor VIIa (FVIIa) and human tissue factor (TF) (Homo sapiens, UniProt P08709); test: Factor VII assay, hydrolysis of structure (11b) as proteolytic substrate; type: biochemical; conditions: for kcat/KM (Factor VII): human FVIIa and TF, pH 8.0 Tris buffer, 37° C.
# T2 construct: human Factor VIIa (FVIIa)
# T2 sequence (P08709 213-466 limits assumed): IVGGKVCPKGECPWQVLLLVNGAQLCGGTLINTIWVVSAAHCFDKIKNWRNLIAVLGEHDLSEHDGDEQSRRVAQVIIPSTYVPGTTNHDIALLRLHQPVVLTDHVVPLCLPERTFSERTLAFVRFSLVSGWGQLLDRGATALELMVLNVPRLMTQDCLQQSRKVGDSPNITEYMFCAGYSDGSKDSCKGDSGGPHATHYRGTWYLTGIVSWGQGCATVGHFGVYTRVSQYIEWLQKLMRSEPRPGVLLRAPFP
# T2 sequence (P08709 61-212 partner limits assumed): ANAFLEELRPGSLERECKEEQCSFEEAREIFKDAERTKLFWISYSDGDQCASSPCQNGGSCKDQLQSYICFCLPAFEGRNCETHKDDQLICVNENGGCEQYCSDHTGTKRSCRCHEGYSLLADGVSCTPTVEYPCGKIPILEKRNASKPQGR
# T2 sequence (P13726 33-251 partner limits assumed): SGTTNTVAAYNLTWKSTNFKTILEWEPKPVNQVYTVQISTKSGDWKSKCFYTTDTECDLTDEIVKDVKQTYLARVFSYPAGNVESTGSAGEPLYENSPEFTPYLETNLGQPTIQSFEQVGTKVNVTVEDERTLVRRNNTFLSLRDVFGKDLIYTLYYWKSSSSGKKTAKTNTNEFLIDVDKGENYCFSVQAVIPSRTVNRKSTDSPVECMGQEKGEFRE
# Experimental: as §1
# For the Factor VII assay, pH 8.0 Tris buffer (0.05 M Tris, 5 mM CaCl2, 0.15 M NaCl, 0.1% TWEEN 20, 0.1% BSA) was used. 10 μl of 20 μM human Factor VIIa (FVIIa) and 22 μM of human tissue factor (TF) was brought to assay buffer to make 160 nM FVIIa and TF solutions, respectively. […] The initial 3 minutes reaction progress curves were recorded. […] The kcat/KM was, calculated from the slope and found to be 17,500 M^−1 s^−1.
# aPTT and TT = test: pharmacodynamic study in rats (aPTT and TT of plasma samples); type: in vivo, rat; conditions: male Sprague Dawley rats, 4 mg/kg IV and 10 mg/kg PO
# Experimental: Specifically, a pharmacodynamic and pharmacokinetic study of structure (20b) was conducted in male Sprague Dawley rats. […] Groups of rats (n=3 or 4) were sacrificed and exsanguinated at 0.25, 0.5, 1, 2, 4 and 8 hours following dosing. Efficacy parameters, aPTT and TT; were measured for each plasma sample.
# control plasma = test: prothrombin time (PT) in control plasma; conditions: compared with PPACK
# Experimental: Then 200 μl of prewarmed (at 37° C. for ˜10 minutes) thromboplastin with calcium (from Sigma) was rapidly added into the plasma sample.
kcat/KM (thrombin) (bovine thrombin) [M⁻¹ s⁻¹],kcat/KM (Factor VII) [1],SMILES,also measured
1.67e+07,"17,500 M^−1 s^−1",N=C(N)NCCC[C@H](NC(=O)[C@@H]1CCN2CC[C@@](N)(Cc3ccccc3)C(=O)N12)C(=O)Nc1ccc([N+](=O)[O-])cc1 [Structure (11b)],"Activity compared to the control (D)FPR-PNA, thrombin (bovine thrombin; ratio of kcat/KM to control): 0.76; Activity compared to the control (D)FPR-PNA, Factor VII ([1]; ratio of kcat/KM to control): 1.38"
2.2e+07,12700 M⁻¹ s⁻¹,"NC(N)=NCCCC(NC(=O)C1CCCN1C(=O)C(N)Cc1ccccc1)C(=O)Nc1ccc([N+](=O)[O-])cc1 (centres unmarked) [(D)FPR-PNA, reference compound]",
,,N=C(N)NCCC[C@H](NC(=O)[C@@H]1CCN2CC[C@@](N)(Cc3ccccc3)C(=O)N12)C(=O)c1nc2ccccc2s1 [Structure (20b)],in vivo efficacy (aPTT and TT) (aPTT and TT): in vivo efficacy
,,N=C(N)NCCC[C@H](NC(=O)[C@@H]1CCN2CC[C@@](N)(Cc3ccccc3)C(=O)N12)C(=O)CCl [Structure (13b)],"time required to form clot (PT), in words (control plasma): comparable with PPACK"
